Patent US9981928B2, “Aryl sulfide derivatives and aryl sulfoxide derivatives as acaricides and insecticides” (BAYER CROPSCIENCE AKTIENGESELLSCHAFT, priority 2013, dated 2018)
Read-outs that look alike come from different tables or passages of the source.

Columns and labels:
[1] = system: southern root-knot nematode (Meloidogyne incognita); assay: Meloidogyne incognita test (MELGIN); format: in vivo; conditions: lettuce in sand; application rate 20 ppm; after 14 days
Description: Meloidogvne incognita test (MELGIN)
Solvent: 125.0 parts by weight of acetone
To produce a suitable preparation of active compound, 1 part by weight of active compound is mixed with the stated amount of solvent and the concentrate is diluted with water to the desired concentration.
Vessels are filled with sand, active compound solution, an egg/larvae suspension of the southern root-knot nematode (Meloidogyne incognita) and lettuce seeds. The lettuce seeds germinate and the plants develop. The galls develop on the roots.
After 14 days, the nematicidal efficacy in % is determined by the formation of galls. 100% means that no galls were found; 0% means that the number of galls on the treated plants corresponds to the untreated control.

[2] = system: greenhouse red spider mite (Tetranychus urticae); assay: Tetranychus urticae spray test, OP-resistant (TETRUR), bean leaf disks; format: in vivo; conditions: bean leaf disks, after 6 days; for pest or weed control at 500 g/ha: Tetranychus urticae, foliar, 144 h, read-out: efficacy in %
How it was run: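 Bean leaf disks carrying all stages of OP-resistant Tetranychus urticae sprayed with compound in acetone/dimethylformamide diluted in emulsifier water. Kill assessed after 6 days as % efficacy, 100% meaning all mites dead.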

[3] = log P determination by HPLC on reversed-phase columns (C 18), analogously to OECD Guideline 117; format: physicochemical; conditions: for logP (HCOOH): LC-MS in the acidic range, pH 2.7, 0.1% aqueous formic acid / acetonitrile; for logP (HCOOH) / logP (neutral): HPLC reversed-phase C 18; for logP (neutral): LC-MS in the neutral range, pH 7.8, 0.001 molar aqueous ammonium hydrogencarbonate / acetonitrile; for chromatographic logP: reversed-phase C18 HPLC column
How it was run: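 Reversed-phase C18 HPLC per OECD 117 with LC-MS detection and a linear 10→95% acetonitrile gradient. Acidic log P run at pH 2.7 with 0.1% formic acid in both eluents. Neutral log P run at pH 7.8 with 0.001 M aqueous ammonium hydrogencarbonate.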

[4] = system: cattle ticks (Boophilus microplus); assay: Boophilus microplus injection test (BOOPMI inj); format: in vivo; conditions: injection into the abdomen; application rate 20 μg/animal; assessed after 7 days
Description: Boophilus microplus—Injection Test (BOOPMI inj)
Solvent: dimethyl sulfoxide
To produce a suitable preparation of active compound, 10 mg of active compound are mixed with 0.5 ml of solvent and the concentrate is diluted with solvent to the desired concentration.
1 μl of the active compound solution is injected into the abdomen of 5 engorged adult female cattle ticks (Boophilus microplus). The animals are transferred into dishes and kept in a climate-controlled room.
Efficacy is assessed after 7 days by laying of fertile eggs. Eggs which are not visibly fertile are stored in a climate-controlled cabinet until the larvae hatch after about 42 days. An efficacy of 100% means that none of the ticks has laid any fertile eggs; 0% means that all the eggs are fertile.

[5] = acidic range, pH 2.7, 0.1% aqueous formic acid and acetonitrile, read-out: log P[a] / log P(HCOOH)
[6] = neutral range, pH 7.8, 0.001 molar aqueous ammonium hydrogencarbonate and acetonitrile, read-out: log P[b] / log P(neutral)

| SMILES | nematicidal efficacy in % (formation of galls) [1] | efficacy in % ([2]; application rate 500 g/ha) | logP (HCOOH) [3] | efficacy (laying of fertile eggs) [4] | logP (neutral) [3] | pest or weed control at 500 g/ha ([2]; application rate 500 g/ha) | chromatographic logP [3, 5] | chromatographic logP [3, 6] | efficacy in % ([2]; application rate 100 g/ha) |
| --- | --- | --- | --- | --- | --- | --- | --- | --- | --- |
| Cc1cc(F)c(N2CC(=O)N(C)C2=O)cc1[S+]([O-])CC(F)(F)F (stereo not shown) [Example 208] | 90% | 100% | 1.68 | 100% | – | – | – | – | – |
| COc1ccc(-n2c(=O)n(C3CC3)c(=O)n2C)cc1[S+]([O-])CC(F)(F)F (stereo not shown) [Example 41] | 90% | 90% | 1.77 | – | 1.75 | – | – | – | – |
| CCn1c(=O)n(C2CC2)c(=O)n1-c1cc(SCC(F)(F)F)c(C)cc1F [Example 127] | 90% | 100% | 3.19 | – | 3.17 | – | – | – | – |
| COc1ccc(-n2c(=O)n(C3CC3)c(=O)n2C)cc1SCC(F)(F)F [Example 42] | 90% | 100% | 2.51 | – | 2.46 | – | – | – | – |
| Cc1cc(F)c(N2C(=O)C(C)(C)C(=O)N2C)cc1[S+]([O-])CC(F)(F)F (stereo not shown) [Example 177, 1-{2-Fluoro-4-methyl-5-[(2,2,2-trifluoroethyl)sulfinyl]phenyl}-2,4,4-trimethylpyrazolidine-3,5-dione] | 90% | – | – | – | – | 90% | 1.89 | 1.85 | – |
| CCn1c(=O)n(C)n(-c2cc(SCC(F)(F)F)c(C)cc2F)c1=O [Example 83] | 100% | 100% | 2.92 | – | 2.88 | – | – | – | – |
| Cc1cc(F)c(N2C(=O)CSC2=NCC(C)C)cc1SCC(F)(F)F [Example 115] | – | 100% | 4.33 | 100% | 4.31 | – | – | – | – |
| Cc1cc(F)c(N2CCOC2=O)cc1SCC(F)(F)F [Example 104, 3-[2-Fluoro-4-methyl-5-(2,2,2-trifluoroethylsulfanyl)phenyl]oxazolidin-2-one] | – | – | – | 100% | – | 100% | 2.66 | – | – |
| Cn1c(=O)n(C2CC2)c(=O)n1-c1ccc(C#N)c(SCC(F)(F)F)c1 [Example 44] | 90% | – | 2.53 | – | 2.45 | – | – | – | – |
| C=CCn1c(=O)n(C)n(-c2cc([S+]([O-])CC(F)(F)F)c(C)cc2F)c1=O (stereo not shown) [Example 80] | 90% | 100% | 2.07 | – | 2.03 | – | – | – | – |
| Cc1ccc(-n2c(=O)n(C3CC3)c(=O)n2C)cc1[S+]([O-])CC(F)(F)F (stereo not shown) [Example 37] | 100% | 100% | 1.89 | 100% | 1.87 | – | – | – | – |
| Cc1cc(F)c(-n2c(=S)n(C3CC3)c(=S)n2C)cc1SCC(F)(F)F [Example 182, 4-cyclopropyl-1-{2-fluoro-4-methyl-5-[(2,2,2-trifluoroethyl)sulfanyl]phenyl}-2-methyl-1,2,4-triazolidine-3,5-dithione] | 90% | – | – | – | – | – | 3.83 | 3.76 | – |
| C=CCn1c(=O)n(C)n(-c2cc(SCC(F)(F)F)c(C)cc2F)c1=O [Example 81] | 90% | – | 3.05 | – | 3.01 | – | – | – | 100% |
| Cc1cc(F)c(N2C(=O)C3(CCC3)C(=O)N2C)cc1SCC(F)(F)F [Example 179] | 90% | 100% | 3.00 | – | 2.96 | – | – | – | – |
| C=CCn1c(=O)n(C2CC2)c(=O)n1-c1ccc(C)c(SCC(F)(F)F)c1 [Example 48] | – | 100% | 3.37 | 80% | 3.31 | – | – | – | – |
| Cc1cc(F)c(-n2c(=O)n(C3CC3)c(=O)n2C)cc1[S+]([O-])CC(F)(F)F (stereo not shown) [Example 34] | 90% | 100% | 1.91 | 100% | 1.88 | – | – | – | – |
| Cn1c(=O)n(C)n(-c2cc([S+]([O-])CC(F)(F)F)c(Cl)cc2F)c1=O (stereo not shown) [Example 29] | 90% | 90% | 1.93 | – | 1.91 | – | – | – | – |

| SMILES | nematicidal efficacy in % (formation of galls) [1] | efficacy in % ([2]; application rate 500 g/ha) | logP (HCOOH) [3] | efficacy (laying of fertile eggs) [4] | logP (neutral) [3] | pest or weed control at 500 g/ha ([2]; application rate 500 g/ha) | chromatographic logP [3, 5] | chromatographic logP [3, 6] | efficacy in % ([2]; application rate 100 g/ha) |
| --- | --- | --- | --- | --- | --- | --- | --- | --- | --- |
| Cn1c(=O)n(C2CC2)c(=O)n1-c1ccc(Br)c([S+]([O-])CC(F)(F)F)c1 (stereo not shown) [Example 45] | 90% | – | 2.27 | – | 2.24 | – | – | – | – |
| Cc1cc(C)c([S+]([O-])CC(F)(F)F)cc1-n1c(=O)n(C)c(=O)n1C (stereo not shown) [Example 33] | 90% | 90% | 1.75 | – | 1.70 | – | – | – | – |
| Cn1c(=O)n(C)n(-c2cc([S+]([O-])CC(F)(F)F)c(F)cc2F)c1=O (stereo not shown) [Example 70] | 90% | – | 1.64 | – | 1.59 | – | – | – | – |
| Cn1c(=O)n(C2CC2)c(=O)n1-c1cc([S+]([O-])CC(F)(F)F)c(Cl)cc1F (stereo not shown) [Example 38] | 100% | 100% | 2.18 | – | 2.16 | – | – | – | – |
| Cc1cc(C)c([S+]([O-])CC(F)(F)F)cc1-n1c(=O)n(C2CC2)c(=O)n1C (stereo not shown) [Example 47] | – | 90% | 1.98 | 100% | 1.93 | – | – | – | – |
| Cc1ccc(-n2c(=O)n(C)c(=O)n2C)cc1SCC(F)(F)F [Example 20, 1,4-Dimethyl-2-{4-methyl-3-[(2,2,2-trifluoroethyl)sulfanyl]phenyl}-1,2,4-triazolidine-3,5-dione] | 90% | – | – | – | – | 100% | 2.59 | 2.58 | – |
| CCn1c(=O)n(C)n(-c2cc([S+]([O-])CC(F)(F)F)c(C)cc2F)c1=O (stereo not shown) [Example 74] | 90% | – | 1.93 | – | 1.91 | – | – | – | 90% |
| Cc1ccc(-n2c(=O)n(C3CC3)c(=O)n2C)cc1SCC(F)(F)F [Example 36] | 100% | 100% | 2.89 | – | 2.87 | – | – | – | – |
| Cc1cc(F)c(-n2c(=O)n(C3CC3)c(=S)n2C)cc1SCC(F)(F)F [Example 181, 4-Cyclopropyl-2-{2-fluoro-4-methyl-5-[(2,2,2-trifluoroethyl)sulfanyl]phenyl}-1-methyl-5-thioxo-1,2,4-triazolidin-3-one] | 90% | – | – | – | – | 90% | 3.44 | 3.39 | – |
| Cn1c(=O)n(C)n(-c2cc(SCC(F)(F)F)c(Cl)cc2F)c1=O [Example 30] | 90% | 100% | 2.71 | – | 2.67 | – | – | – | – |
| Cn1c(=O)n(C)n(-c2cc([S+]([O-])CC(F)(F)F)c(Br)cc2F)c1=O (stereo not shown) [Example 69] | 90% | – | 2.01 | – | 1.98 | – | – | – | – |
| CCn1c(=O)n(C(C)(C)C)c(=O)n1-c1ccc(C)c(SCC(F)(F)F)c1 [Example 134] | – | 100% | 4.32 | – | 4.27 | – | – | – | – |
| Cc1ccc(-n2c(=O)n(C(C)(C)C)c(=O)n2C)cc1[S+]([O-])CC(F)(F)F (stereo not shown) [Example 139] | – | 100% | 2.71 | – | 2.70 | – | – | – | – |
| CCn1c(=O)n(C)c(=O)n1-c1cc(SCC(F)(F)F)c(C)cc1F [Example 97] | – | 100% | 2.91 | – | 2.83 | – | – | – | – |
| Cc1cc(F)c(-n2c(=O)n(C)n(CC3CC3)c2=O)cc1SCC(F)(F)F [Example 126] | – | 90% | 3.15 | – | – | – | – | – | – |
| C#CCn1c(=O)n(-c2cc([S+]([O-])CC(F)(F)F)c(C)cc2F)c(=O)n1C (racemic) [Example 123] | – | 100% | 1.96 | – | – | – | – | – | – |
| CCn1c(=O)n(C(C)C)c(=O)n1-c1ccc(C)c(SCC(F)(F)F)c1 [Example 133] | – | 100% | 3.77 | – | 3.73 | – | – | – | – |
